Experimental data from ChEMBL document CHEMBL1201862, “PubChem BioAssay data set” (2004).
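Where inhibition never reached the appropriate level, the endpoint shown equals the highest concentration tested. Otherwise, values were interpolated linearly from a five-concentration, 48-hour dose response in 96-well plates. GI50 = concentration required for 50% inhibition of growth.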 The source made the active and inactive calls. Rule as the data show it: active = GI50 up to about 1.1 µM and inactive = higher.

Assays:
Assay in all cases: inhibition of tumour cell growth, NCI panel, 48 h
OVCAR-3 = system: OVCAR-3
A549 = system: A549
ACHN = system: ACHN
SK-MEL-5 = system: SK-MEL-5
NCI-H226 = system: NCI-H226
Hs-578T = system: Hs-578T
OVCAR-5 = system: OVCAR-5
A498 = system: A498
MOLT-4 = system: MOLT-4
RXF 393 = system: RXF 393
M14 = system: M14
EKVX = system: EKVX
IGROV-1 = system: IGROV-1
SK-OV-3 = system: SK-OV-3
SF-295 = system: SF-295
SF-539 = system: SF-539
TK-10 = system: TK-10
DU-145 = system: DU-145
UACC-257 = system: UACC-257
OVCAR-4 = system: OVCAR-4

| SMILES | GI50 (OVCAR-3) | GI50 (A549) | GI50 (ACHN) | GI50 (SK-MEL-5) | GI50 (NCI-H226) | GI50 (Hs-578T) | GI50 (OVCAR-5) | GI50 (A498) | GI50 (MOLT-4) | GI50 (RXF 393) | GI50 (M14) | GI50 (EKVX) | GI50 (IGROV-1) | GI50 (SK-OV-3) | GI50 (SF-295) | GI50 (SF-539) | GI50 (TK-10) | GI50 (DU-145) | GI50 (UACC-257) | GI50 (OVCAR-4) |
| --- | --- | --- | --- | --- | --- | --- | --- | --- | --- | --- | --- | --- | --- | --- | --- | --- | --- | --- | --- | --- |
| CCCC1(N)CC(OC)OC(C)C1O (stereo not drawn) | > 100 µM (inactive) | > 100 µM (inactive) | > 100 µM (inactive) | > 100 µM (inactive) | > 100 µM (inactive) | > 100 µM (inactive) | > 100 µM (inactive) | > 100 µM (inactive) | > 100 µM (inactive) | > 100 µM (inactive) | > 100 µM (inactive) | > 100 µM (inactive) | > 100 µM (inactive) | > 100 µM (inactive) | > 100 µM (inactive) | > 100 µM (inactive) | > 100 µM (inactive) | > 100 µM (inactive) | > 100 µM (inactive) | – |
| Cc1cc(S(=O)(=O)O)c(NC(=O)C(=O)C2C=CCS2(=O)=O)cc1Cl (stereo not drawn) | > 100 µM (inactive) | > 100 µM (inactive) | > 100 µM (inactive) | > 100 µM (inactive) | > 100 µM (inactive) | – | > 100 µM (inactive) | > 100 µM (inactive) | > 100 µM (inactive) | > 100 µM (inactive) | > 100 µM (inactive) | > 100 µM (inactive) | > 100 µM (inactive) | > 100 µM (inactive) | > 100 µM (inactive) | > 100 µM (inactive) | > 100 µM (inactive) | – | > 100 µM (inactive) | > 100 µM (inactive) |
| COC1C(=[N+]=[N-])C(=O)NC(=O)N1C1OC(COC(c2ccccc2)(c2ccccc2)c2ccccc2)C(O)C1O (stereo not drawn) | 18.7 µM (inactive) | 17.5 µM (inactive) | 18.1 µM (inactive) | 16.2 µM (inactive) | 17.5 µM (inactive) | – | 17.8 µM (inactive) | 20.1 µM (inactive) | 18.2 µM (inactive) | – | 19 µM (inactive) | 19 µM (inactive) | 20.6 µM (inactive) | 20.5 µM (inactive) | 18 µM (inactive) | 19.9 µM (inactive) | – | – | > 10 µM (inactive) | 14.2 µM (inactive) |
| O=C1Cc2c(-c3ccccc3)cc(-c3ccccc3)nc2-c2ccccc2N1 | 5.56 µM (inactive) | 5.61 µM (inactive) | – | 2.38 µM (inactive) | 5.5 µM (inactive) | 4.07 µM (inactive) | 3.54 µM (inactive) | 20 µM (inactive) | – | 4.61 µM (inactive) | 3.44 µM (inactive) | 13.2 µM (inactive) | 18.6 µM (inactive) | 5.22 µM (inactive) | 3.17 µM (inactive) | 11 µM (inactive) | – | 5.82 µM (inactive) | 19.6 µM (inactive) | – |
| CCOC(=O)C(C(C)=O)C1CC=CC1 (stereo not drawn) | > 100 µM (inactive) | > 100 µM (inactive) | > 100 µM (inactive) | > 100 µM (inactive) | > 100 µM (inactive) | – | > 100 µM (inactive) | – | > 100 µM (inactive) | > 100 µM (inactive) | > 100 µM (inactive) | > 100 µM (inactive) | > 100 µM (inactive) | > 100 µM (inactive) | > 100 µM (inactive) | – | > 100 µM (inactive) | – | > 100 µM (inactive) | > 100 µM (inactive) |
| CO/C(=N\N=C\c1ccc(Cl)c(Cl)c1)c1ccncc1 | > 10 µM (inactive) | > 10 µM (inactive) | 4.99 µM (inactive) | > 10 µM (inactive) | > 10 µM (inactive) | – | > 10 µM (inactive) | – | > 10 µM (inactive) | > 10 µM (inactive) | > 10 µM (inactive) | – | > 10 µM (inactive) | > 10 µM (inactive) | > 10 µM (inactive) | > 10 µM (inactive) | > 10 µM (inactive) | – | – | – |
| O=c1[nH]c(=O)n(C2CC(O)C(CO)O2)cc1C#Cc1cc(C(F)(F)F)cc(C(F)(F)F)c1 (stereo not drawn) | > 52.1 µM (inactive) | > 24.7 µM (inactive) | > 29.4 µM (inactive) | > 27.4 µM (inactive) | > 100 µM (inactive) | – | > 100 µM (inactive) | > 100 µM (inactive) | > 26.9 µM (inactive) | 8.87 µM (inactive) | > 24.8 µM (inactive) | 40.3 µM (inactive) | > 36.4 µM (inactive) | 91.2 µM (inactive) | 17.3 µM (inactive) | 26.5 µM (inactive) | > 100 µM (inactive) | – | > 37.5 µM (inactive) | > 29.4 µM (inactive) |
| CC1(C)CCC[C@@]2(C)C1C[C@H](O)[C@@]1(C)O[C@@](C)([C@H](O)CO)CCC21 (stereo partly drawn) | 29.8 µM (inactive) | 36.2 µM (inactive) | 26 µM (inactive) | 20.9 µM (inactive) | 28.7 µM (inactive) | – | 39.8 µM (inactive) | 20.9 µM (inactive) | 21.2 µM (inactive) | – | 34.6 µM (inactive) | > 100 µM (inactive) | 28.9 µM (inactive) | 25.1 µM (inactive) | 35.6 µM (inactive) | 37.2 µM (inactive) | 22.9 µM (inactive) | – | 33.5 µM (inactive) | 35.7 µM (inactive) |
| COc1ccc(N2C(=O)c3c(c4[nH]c5ccc(OC)cc5c4c4ccc(C(C)(C)C)cc34)C2=O)cc1 | > 100 µM (inactive) | > 100 µM (inactive) | > 100 µM (inactive) | > 100 µM (inactive) | > 100 µM (inactive) | – | > 100 µM (inactive) | – | > 100 µM (inactive) | – | > 100 µM (inactive) | > 100 µM (inactive) | > 100 µM (inactive) | > 100 µM (inactive) | > 100 µM (inactive) | > 100 µM (inactive) | > 100 µM (inactive) | – | > 100 µM (inactive) | > 100 µM (inactive) |
| COc1ccc(C[C@H](N)C(=O)N2C[C@H](CO)C[C@H](n3cnc4c(N(C)C)ncnc43)C2)cc1 | > 100 µM (inactive) | > 100 µM (inactive) | > 100 µM (inactive) | > 100 µM (inactive) | > 100 µM (inactive) | – | > 100 µM (inactive) | – | > 100 µM (inactive) | > 100 µM (inactive) | > 100 µM (inactive) | > 100 µM (inactive) | > 100 µM (inactive) | > 100 µM (inactive) | – | > 100 µM (inactive) | > 100 µM (inactive) | – | – | > 100 µM (inactive) |
| CC(=O)O[C@H]1CC[C@]2(C=O)[C@H]3CC[C@]4(C)[C@@H](C5=CC(=O)OC5)CC[C@]4(O)[C@@H]3CC[C@]2(O)C1 [STROPHANTHIDIN ACETATE] | 0.0982 µM (active) | 0.0684 µM (active) | 0.047 µM (active) | 0.0923 µM (active) | 0.681 µM (active) | 0.45 µM (active) | 0.575 µM (active) | 0.264 µM (active) | 0.0262 µM (active) | – | 0.416 µM (active) | 0.225 µM (active) | 0.31 µM (active) | 0.222 µM (active) | 0.175 µM (active) | 0.13 µM (active) | 0.211 µM (active) | 0.164 µM (active) | 0.362 µM (active) | 0.0998 µM (active) |
| O=C1CSC(C(/N=N/c2ccc(Cl)cc2)c2nc3ccccc3[nH]2)=N1 (stereo not drawn) | 36.9 µM (inactive) | > 100 µM (inactive) | 28.7 µM (inactive) | 25.6 µM (inactive) | 0.0105 µM (active) | – | > 100 µM (inactive) | > 100 µM (inactive) | 6.79 µM (inactive) | – | > 100 µM (inactive) | 91.2 µM (inactive) | – | 55 µM (inactive) | 38.8 µM (inactive) | 23.4 µM (inactive) | > 100 µM (inactive) | – | > 100 µM (inactive) | > 100 µM (inactive) |
| O=c1cc(-c2nc3ccccc3[nH]2)[nH]c2nc(-c3nc4ccccc4[nH]3)cc(-c3ccc(Cl)cc3)c12 | 19.3 µM (inactive) | 24.4 µM (inactive) | 16.6 µM (inactive) | 15.7 µM (inactive) | 16.9 µM (inactive) | 30.5 µM (inactive) | 29 µM (inactive) | – | 19.4 µM (inactive) | 14.5 µM (inactive) | 23.8 µM (inactive) | 23.3 µM (inactive) | 1.42 µM (inactive) | 15.3 µM (inactive) | 21.5 µM (inactive) | 15.9 µM (inactive) | 19.4 µM (inactive) | 32.8 µM (inactive) | 23.7 µM (inactive) | 26.1 µM (inactive) |
| NC12CCC(CC1=O)C2 (stereo not drawn) | > 100 µM (inactive) | > 100 µM (inactive) | > 100 µM (inactive) | > 100 µM (inactive) | > 100 µM (inactive) | > 100 µM (inactive) | > 100 µM (inactive) | – | > 100 µM (inactive) | – | > 100 µM (inactive) | > 100 µM (inactive) | > 100 µM (inactive) | > 100 µM (inactive) | > 100 µM (inactive) | > 100 µM (inactive) | > 100 µM (inactive) | > 100 µM (inactive) | > 100 µM (inactive) | > 100 µM (inactive) |
| OC[C@@H](O)[C@H]1NC[C@@H](O)[C@H]1O | > 100 µM (inactive) | > 100 µM (inactive) | > 100 µM (inactive) | > 100 µM (inactive) | – | > 100 µM (inactive) | > 100 µM (inactive) | > 100 µM (inactive) | > 100 µM (inactive) | > 100 µM (inactive) | > 100 µM (inactive) | > 100 µM (inactive) | > 100 µM (inactive) | > 100 µM (inactive) | > 100 µM (inactive) | > 100 µM (inactive) | > 100 µM (inactive) | > 100 µM (inactive) | > 100 µM (inactive) | > 100 µM (inactive) |
| Cc1ccc(Nc2nc(=O)c3c([nH]c4ccccc43)s2)cc1 | 14 µM (inactive) | 12.6 µM (inactive) | 16.2 µM (inactive) | 8.32 µM (inactive) | – | 27.2 µM (inactive) | – | 18.1 µM (inactive) | 21.7 µM (inactive) | – | 6.59 µM (inactive) | 27.8 µM (inactive) | 13.7 µM (inactive) | 28.1 µM (inactive) | 11.8 µM (inactive) | 15.7 µM (inactive) | 11.3 µM (inactive) | 18.6 µM (inactive) | 17.1 µM (inactive) | 18.1 µM (inactive) |
